Laboratory results as given in patent publication US8648111B2, “N1-2-thiophene-2-ylethyl-N2-substituted biguanide derivate, preparation method thereof, and pharmaceutical composition containing the same as active ingredients” (Hanall Biopharma Co., Ltd., priority 2008, dated 2014).
Like-named read-outs stand apart in the source and are kept apart here.

Legend:
Assay type in all cases: cell-based
[1] = tested on: C2C12 cells; assay: Measurement of glucose absorption ability (3H-deoxy-glucose uptake with insulin); settings: for Glucose absorption (100 uM) Aver.: 100 uM compound with 1 μM insulin, 24 hours, differentiated C2C12, higher value = stronger, more than 200% counts as glucose absorption ability
Protocol: (§1) 2 mM metformin was used as a comparative compound for each of the plates (control group).
C2C12 cells (ATCC: American Type Culture Collection), a muscle cell model, were induced to differentiate into muscle cells in 2% bovine fetal serum-containing media (DMEM (Gibco), FBS (Gibco)) for 6 days. The C2C12 cells which differentiated into muscle cells were transferred to serum-free low glucose media (DMEM (Gibco), FBS (Gibco)), treated with 100 μM of each of the compounds, and then cultured with 1 μM of insulin for 24 hours. After cultivation, the cells were treated with 1 μCi ^3H-deoxy-glucose (Amersham Pharmacia) and 10 μM deoxy-glucose (Sigma) at 37° C. for 15 minutes. The media were removed therefrom, and the cells were washed twice with PBS (phosphate buffered saline). The washed cells were treated with 0.1N NaOH and neutralized with 1N HCl. The content of glucose absorbed into the cells was measured with a liquid scintillation counter.
A higher measurement value means a stronger ability to reduce insulin resistance.

[2] = tested on: HepG2 cells; assay: Measurement of triglyceride (triglyceride content in cell lysates, Amplex red)
Protocol: as §1
HepG2 cells (ATCC: American Type Culture Collection) were cultured in 1% serum-containing media (DMEM (Gibco), FBS (Gibco)) for 24 hours, and then treated with 100 μM or 500 μM of each of the compounds prepared in Examples for 24 hours. Then, the cells were disrupted with a lysis solution (0.1 M potassium phosphate, pH 7.4, 0.05 M NaCl, 5 mM cholic acid, 0.1% Triton X-100). […] After completion of the reaction, the content of triglyceride formed in the cell lysates was measured at a wavelength of 560/590 nm (ex/em) using a fluorescence microscope.
A lower measurement value means an increased triglyceride synthesis inhibitory ability.

[3] = tested on: HepG2 cells; assay: Measurement of gluconeogenesis inhibitory ability (14C-lactate, glucose formed in cells)
Protocol: as §1
HepG2 cells (ATCC: American Type Culture Collection) were cultured in 10% serum-containing high glucose media, transferred to no serum-containing low glucose media (DMEM (Gibco), FBS (Gibco)), and then treated with 100 μM of each of the compounds for 24 hours. Then, the cells were treated with 0.5 μCi ^14C-lactate (Amersham Pharmacia) and 10 mM L-lactate (Sigma), and cultured for 4 hours. After cultivation, the media were removed therefrom, and the cells were washed with PBS, treated with 0.1N NaOH and kept at room temperature for 1 hour. Then, the cells were neutralized with 1N HCl, and the content of glucose formed in the cells was measured with a liquid scintillation counter.
A lower measurement value means an increased gluconeogenesis inhibitory ability.

[4] = tested on: HepG2 cells; assay: Measurement of cholesterol synthesis inhibitory ability (cholesterol content in cell lysates, Amplex red)
Protocol: as §1
A cholesterol synthesis inhibitory ability, which is an important function of AMPK (AMP-activated protein kinase), was measured using HepG2 cells (ATCC: American Type Culture Collection) as a hepatic cell model according to the following procedure.
The hepatic cell model HepG2 cells were cultured in 1% serum-containing media (DMEM (Gibco), FBS (Gibco)) for 24 hours, and then treated with 100 μM or 500 μM of each of the compounds prepared in Examples for 24 hours. Then, the cells were disrupted with a lysis solution (0.1 M potassium phosphate, pH 7.4, 0.05 M NaCl, 5 mM cholic acid, 0.1% Triton X-100 (Sigma)). To the disrupted cells was added the same volume of a reaction solution (2 U/mL of a cholesterol oxidizing agent, 2 U/mL of a peroxidase, 0.2 U/mL of a cholesterol esterase, and 300 μM of Amplex red as a fluorescent factor (Molecular Probe)), which was allowed to react at 37° C. for 30 minutes. After completion of the reaction, the content of cholesterol formed in the cell lysates was measured at a wavelength of 560/590 nm (ex/em) using a fluorescence microscope.
A lower measurement value means an increased cholesterol synthesis inhibitory ability.

[5] = 100 μM compound vs 2 mM metformin, by comparison of used amounts
[6] = 100 uM compound, 24 hours, HepG2, lower value = stronger triglyceride synthesis inhibition
[7] = 500 uM compound, 24 hours, HepG2, lower value = stronger triglyceride synthesis inhibition
[8] = 100 uM compound, 24 hours, HepG2, lower value = stronger cholesterol synthesis inhibition
[9] = 500 uM compound, 24 hours, HepG2, lower value = stronger cholesterol synthesis inhibition
[10] = 100 uM compound, 24 hours, HepG2, lower value = stronger gluconeogenesis inhibition

Row | Molecule | Glucose absorption (100 uM) Aver. [1] | Triglyceride (100 uM) Aver. [2, 6] | Triglyceride (500 uM) Aver. [2, 7] | Cholesterol (100 uM) Aver. [4, 8] | Cholesterol (500 uM) Aver. [4, 9] | Gluconeogenesis inhibition (100 uM) Aver. [3, 10] | further results
1 | C=CCN=C(NCCc1cccs1)NC(=N)N.Cl [Example 44, N1-2-(thiophen-2-ylethyl)-N2-allyl biguanide hydrochloride] | 87.78% | – | – | – | – | – | Triglyceride (100 uM) Aver. [2]: 96.99; Triglyceride (500 uM) Aver. [2]: 74.60; Gluconeogenesis inhibition (100 uM) Aver. [3]: 77.80; Cholesterol (100 uM) Aver. [4]: 85.73; Cholesterol (500 uM) Aver. [4]: 82.40
2 | CCN=C(NCCc1cccs1)NC(=N)N.Cl [Example 1, N1-(thiophen-2-ylethyl)-N2-ethyl biguanide hydrochloride] | 322.7% | 56.70 | 54.57 | 45.18 | 30.51 | – | glucose absorption effect relative to control group [1, 5]: about 20 times; effect in inhibiting gluconeogenesis relative to control group [3, 5]: at least 20 times; activity at 100 µM ([3]; Homo sapiens, HepG2, 24 h, 100 uM compound, 24 hours, HepG2, lower value = stronger gluconeogenesis inhibition, read-out: Gluconeogenesis inhibition (100 uM) Aver.): 48.9%
3 | Cc1ccc(CN=C(NCCc2cccs2)NC(=N)N)cc1.Cl [Example 40, N1-2-(thiophen-2-ylethyl)-N2-(4-methylbenzyl) biguanide hydrochloride] | 75.38% | – | – | – | – | – | Triglyceride (100 uM) Aver. [2]: 84.73; Triglyceride (500 uM) Aver. [2]: 60.37; Gluconeogenesis inhibition (100 uM) Aver. [3]: 81.23; Cholesterol (100 uM) Aver. [4]: 72.58; Cholesterol (500 uM) Aver. [4]: 57.11
4 | Cl.N=C(N)NC(=Nc1ccccc1)NCCc1cccs1 [Example 20, N1-2-(thiophen-2-ylethyl)-N2-phenyl biguanide hydrochloride] | 125.4% | 67.5 | 57.6 | 45.7 | 18.3 | 87.36 | –
5 | CC(C)N=C(NCCc1cccs1)NC(=N)N.Cl [Example 41, N1-2-(thiophen-2-ylethyl)-N2-isopropyl biguanide hydrochloride] | 150.65% | 93.91 | 81.62 | 87.73 | 75.54 | 97.81 | –
6 | N1-2-(thiophen-2-ylethyl)-N2-(4-bromobenzyl) biguanide hydrochloride [Example 37] | 7.71% | – | – | – | – | – | Triglyceride (100 uM) Aver. [2]: 61.41; Triglyceride (500 uM) Aver. [2]: 20.15; Gluconeogenesis inhibition (100 uM) Aver. [3]: 89.96; Cholesterol (100 uM) Aver. [4]: 28.36; Cholesterol (500 uM) Aver. [4]: 30.84
7 | Cc1cccc(N=C(NCCc2cccs2)NC(=N)N)c1.Cl [Example 27, N1-2-(thiophen-2-ylethyl)-N2-(3-methylphenyl) biguanide hydrochloride] | 12.91% | 46.45 | 20.64 | 33.26 | 28.82 | 56.42 | –
8 | COc1ccc(OC)c(N=C(NCCc2cccs2)NC(=N)N)c1.Cl [Example 16, N1-2-(thiophen-2-ylethyl)-N2-(2,5-dimethoxy)phenyl biguanide hydrochloride] | – | – | – | – | – | – | Glucose absorption (100 uM) Aver. ([1]; hydrochloride): 147.3%; Triglyceride (100 uM) Aver. ([2]; 100 uM compound, 24 hours, HepG2, lower value = stronger triglyceride synthesis inhibition, hydrochloride): 73.8; Triglyceride (500 uM) Aver. ([2]; 500 uM compound, 24 hours, HepG2, lower value = stronger triglyceride synthesis inhibition, hydrochloride): 51.3; Gluconeogenesis inhibition (100 uM) Aver. ([3]; 100 uM compound, 24 hours, HepG2, lower value = stronger gluconeogenesis inhibition, hydrochloride, 100 µM): 68.89; Cholesterol (100 uM) Aver. ([4]; 100 uM compound, 24 hours, HepG2, lower value = stronger cholesterol synthesis inhibition, hydrochloride): 85.0; Cholesterol (500 uM) Aver. ([4]; 500 uM compound, 24 hours, HepG2, lower value = stronger cholesterol synthesis inhibition, hydrochloride): 58.5
9 | COc1cc(N=C(NCCc2cccs2)NC(=N)N)cc(OC)c1OC.Cl [Example 17, N1-2-(thiophen-2-ylethyl)-N2-(3,4,5-trimethoxy)phenyl biguanide hydrochloride] | 165.2% | 86.2 | 79.4 | 87.2 | 57.5 | 95.56 | –
10 | CCc1ccccc1N=C(NCCc1cccs1)NC(=N)N.Cl [Example 9, N1-2-(thiophen-2-ylethyl)-N2-2-ethylphenyl biguanide hydrochloride] | 252.6% | 74.99 | 19.51 | 39.25 | 7.55 | 74.23 | –
11 | CN=C(NCCc1sccc1C)NC(=N)N.Cl [Example 45, N1-2-(3-methylthiophen-2-ylethyl)-N2-methyl biguanide hydrochloride] | 264.76% | 92.38 | 89.00 | 77.03 | 63.78 | 94.51 | –
12 | N1-2-(thiophen-2-ylethyl)-N2-t-butyl biguanide hydrochloride [Example 7] | 21.59% | 74.43 | 16.49 | 42.51 | 2.79 | 39.98 | –
13 | Cl.N=C(N)NC(=Nc1cccc(C(F)(F)F)c1)NCCc1cccs1 [Example 14, N1-2-(thiophen-2-ylethyl)-N2-(3-trifluoromethyl)phenyl biguanide hydrochloride] | 4.38% | 11.8 | 13.2 | 23.3 | 41.4 | 8.75 | –
14 | CCCCCCc1ccc(N=C(NCCc2cccs2)NC(=N)N)cc1.Cl [Example 29, N1-2-(thiophen-2-ylethyl)-N2-(4-hexylphenyl) biguanide hydrochloride] | 3.96% | 8.04 | 42.57 | 30.10 | 119.39 | 1.26 | –
15 | Cl.N=C(N)NC(=Nc1ccc(Oc2ccccc2)cc1)NCCc1cccs1 [Example 36, N1-2-(thiophen-2-ylethyl)-N2-(4-phenoxyphenyl) biguanide hydrochloride] | 4.50% | 20.95 | 17.89 | 31.22 | 34.74 | 1.54 | –
16 | Cl.N=C(N)NC(=NC1CCCCCC1)NCCc1cccs1 [Example 22, N1-2-(thiophen-2-ylethyl)-N2-cycloheptyl biguanide hydrochloride] | 173.8% | 77.8 | 78.9 | 69.8 | 44.4 | 96.63 | –
